Reference: PMC7463537, “Synthesis and Evaluation of Antimicrobial and Cytotoxic Activity of Oxathiine-Fused Quinone-Thioglucoside Conjugates of Substituted 1,4-Naphthoquinones” (Molecules, 2020)
Values after ≈ are worked out from the molar mass of the structure shown. Read-outs that look alike come from different tables or passages of the source.

How the values were obtained:
[1] = system: human cervical cancer (HeLa); test: Cytotoxicity, MTT assay, HeLa cells; conditions: for EC50: 24 h, read-out: Cytotoxicity (EC50), HeLa; for Selectivity Index (SI), HeLa: SI = EC50 (Jb6 Cl 41-5a normal cells)/EC50 (tumor cells)
B. cereus ATCC 10702 = test: Agar diffusion method, B. cereus; assay type: cell-based, Bacillus cereus; design: key to Diameter of Zone Inhibition, B. cereus: Zones within 20–40 mm mean strong antibiotic activity; zones up to 20 mm—moderate; ≤10 mm—weak; +—insignificant; conditions: 100 µg/well, 24 h, incl. 7 mm well; for zone of inhibition at 100 µg/disc: Bacillus cereus, ATCC10702, 24 h, read-out: Diameter of Zone Inhibition, B. cereus
Procedure: (§1) Elyakov Pacific Institute of Bioorganic Chemistry, Far East Branch, Russian Academy of Sciences. Test substances were dissolved in DMSO at concentrations of 1.0, 0.1, and 0.01 mg/mL. All strains were grown on trypticase-soy agar TSA (BBL) at 37 °C. […] After incubation of the dishes at 37 °C for 24 h (for bacteria) and 48 h (for the fungus) at 28 °C, the diameters of the growth inhibition zones of pathogenic microorganisms (mm) were measured, including the diameter of the wells. Commercial antibacterial drugs (vancomicin and gentamicin) and antifungal (clotrimazol) drugs were used as positive controls.

P. aeruginosa ATCC 27853 = test: Agar diffusion method, P. aeruginosa; assay type: cell-based, Pseudomonas aeruginosa; conditions: for zone of inhibition at 100 µg/disc: Pseudomonas aeruginosa, ATCC27853, 100 µg/well, read-out: Diameter of Zone Inhibition, P. aeruginosa
Procedure: as §1

E. coli K-12 = test: Agar diffusion method, E. coli; assay type: cell-based, Escherichia coli; conditions: Escherichia coli, K12; 100 µg/well; read-out: Diameter of Zone Inhibition, E. coli
Procedure: as §1

[2] = system: mouse neuroblastoma (Neuro 2a); test: Cytotoxicity, MTT assay, Neuro 2a cells; conditions: for EC50: 24 h, read-out: Cytotoxicity (EC50), Neuro 2a; for Selectivity Index (SI), Neuro-2a: SI = EC50 (Jb6 Cl 41-5a normal cells)/EC50 (tumor cells)
S. aureus ATCC 21027 [3] = test: Agar diffusion method, S. aureus; assay type: cell-based, Staphylococcus aureus; conditions: Staphylococcus aureus, ATCC21027, 24 h, 100 µg/well, 24 h, incl. 7 mm well; read-out: Diameter of Zone Inhibition, S. aureus
Procedure: as §1

[4] = system: mouse ascites Ehrlich carcinoma; test: Cytotoxicity, nonspecific esterase (FDA) assay, ascites Ehrlich carcinoma cells; conditions: for EC50: 24 h, read-out: Cytotoxicity (EC50), Ascites Ehrlich Carcinoma; for Selectivity Index (SI), Ascitic Ehrlich Carcinoma: SI = EC50 (Jb6 Cl 41-5a normal cells)/EC50 (tumor cells)
S. aureus ATCC 21027 [5] = test: Minimum inhibitory concentration, broth microdilution; assay type: cell-based, Staphylococcus aureus; conditions: for MIC: Staphylococcus aureus, ATCC21027, broth microdilution, 24 h, read-out: Minimum inhibitory concentration (MIC) against S. aureus
Procedure: Stocks of substances were prepared in DMSO at a concentration of 10 mM. All studied compounds were tested in concentrations from 1.5 μM to 100 μM using twofold dilution. All tested compounds were add to the wells of the plates in a volume of 20 μL diluted in PBS (DMSO concentration < 1%). The bacterial culture of S. aureus ATCC 21027 (Collection of Marine Microorganisms PIBOC FEB RAS) was cultured in a Petri dish at 37 °C for 24 h on solid medium with the following composition; pepton—5.0 g/L, K2HPO4—0.2 g/L, glucose—1.0 g/L, MgSO4—0.05 g/L, yeast extract—1 g/L, agar—16.0 g/L, and distilled water—1.0 L. The pH of the medium was adjusted to 7.2–7.4 with NaOH solution.
The antimicrobial activity of the compounds was determined by the minimum inhibitory concentration (MIC) according to the method adopted by the Clinical and Laboratory Standards Institute (CLSI). Methods for dilution antimicrobial susceptibility tests for bacteria that grow aerobically followed the approved standard—tenth edition. CLSI document M07-A10, PA: Clinical and Laboratory Standards Institute; 2015, with a slight modification of the medium. The assays were performed in 96-well microplates in appropriate broth (pepton—5.0 g/L, K2HPO4—0.2 g/L, glucose—1.0 g/L, MgSO4—0.05 g/L, yeast extract—1 g/L, casein hydrolyzate—2.5 g/L, distilled water—1L). […] The MIC value is defined as the lowest concentration of compounds resulting in the complete inhibition of bacterial growth by measuring the absorbance at 600 nm with a microplate reader (BioTek, Winooski, Vt, USA). All experiments were performed twice in triplicate. Gentamicin was used as a positive control in concentration 1 mg/mL; 1% DMSO solution in PBS as a negative. The selectivity index for S. aureus has been defined as the ratio of EC50 for normal cells and the MIC value for the bacterial culture (SI = EC50/MIC).

[6] = Cytotoxicity, statements of the text over all tested cell lines; conditions: human, mouse
in vitro = conditions: mouse
C. albicans KMM 453 = test: Agar diffusion method, C. albicans; assay type: cell-based; conditions: Candida albicans, KMM453, 48 h, 100 µg/well, 48 h at 28 °C; read-out: Diameter of Zone Inhibition, C. albicans
Procedure: as §1

Solubility in DMSO = assay type: physicochemical; conditions: did not allow measurement of cytotoxic activity
[7] = Cytotoxicity, MTT assay, Jb6 Cl 41-5a normal epithelial cells; conditions: mouse, Jb6 Cl 41-5a normal epithelial cells
[8] = system: Gram-positive bacteria (S. aureus, B. cereus); test: Agar diffusion method, Gram-positive strains; assay type: cell-based, Staphylococcus aureus, Bacillus cereus; conditions: Staphylococcus aureus; 100 µg/well; read-out: Antimicrobial activity / inhibition zone diameter, Gram-positive bacteria
Procedure: as §1

[9] = system: mouse normal epithelial cell line (JB6 Cl 41-5a); test: Cytotoxicity, MTT assay, Jb6 Cl 41-5a normal epithelial cells; conditions: read-out: Cytotoxicity (EC50), Jb6 Cl 41-5a; MTT reagent, 24 h, non-cancer cells

Row | melting point | Compound | EC50 ([1]; Homo sapiens, HeLa) | zone of inhibition at 100 µg/disc (B. cereus ATCC 10702) | zone of inhibition at 100 µg/disc (P. aeruginosa ATCC 27853) | zone of inhibition at 100 µg/disc (E. coli K-12) | EC50 ([2]; N2a) | zone of inhibition at 100 µg/disc (S. aureus ATCC 21027 [3]) | EC50 ([4]; Mus musculus, Ehrlich) | MIC (S. aureus ATCC 21027 [5]) | EC50 at 24 h [6] | zone of inhibition at 100 µg/disc (C. albicans KMM 453) | Selectivity Index (SI), HeLa [1] | EC50 at 24 h [7] | Selectivity Index (SI), Neuro-2a [2] | Selectivity Index (SI), Ascitic Ehrlich Carcinoma [4] | zone of inhibition at 100 µg/disc [8] | other results
1 |  | O=C1C=CC(=O)c2c(O)cccc21 [Juglone, 5-hydroxy-1,4-naphthoquinone, reference compound] | > 100000 nM | 0 mm | < 20 mm | 0 mm | > 100000 nM | 0 mm | > 100000 nM | > 100 µM | > 100000 nM |  |  |  |  |  |  | Diameter of Zone Inhibition, P. aeruginosa (P. aeruginosa ATCC 27853; 100 µg/well): 12 ± 2 mm; EC50 (in vitro): > 100000 nM
2 | > 350 °C | COc1ccc(OC)c2c1C(=O)C1=C(S[C@@H]3O[C@H](CO)[C@H](O)[C@H](O)[C@H]3O1)C2=O [Compound 17b, (2R,3R,4S,4aR,12aS)-3,4-Dihydroxy-2-hydroxymethyl-7,10-dimethoxy-3,4,4a,12a-tetrahydro-2H-naphtho[2,3-b]pyrano[2,3-e][2,5]oxathiine-6,11-dione] |  |  | 0 mm | 0 mm |  | 0 mm |  |  |  | 0 mm |  |  |  |  |  | Diameter of Zone Inhibition, B. cereus (B. cereus ATCC 10702): +; Solubility in DMSO (Solubility in DMSO): poor solubility
3 | 319 to 321 °C | O=C1C2=C(S[C@@H]3OC[C@H](O)[C@H](O)[C@H]3O2)C(=O)c2c(O)cccc21 [Compound 19d, (3S,4S,4aR,12aS)-3,4,10-Trihydroxy-3,4,4a,12a-tetrahydro-2H-naphtho[2,3-b]pyrano[2,3-e][2,5]oxathiine-6,11-dione] | 1300 nM | 25 ± 2 mm | 0 mm | 0 mm | 2200 nM | 20 ± 3 mm | 1100 nM | 6.25 µM (≈ 2.1 µg/mL) |  | 0 mm | 1.8 | 2300 nM | 1 | 2.1 | 20 to 40 mm | Selectivity index (SI) against S. aureus (S. aureus ATCC 21027 [5]; SI = EC50 (normal Jb6 Cl 41-5a cells)/MIC): 0.4
4 |  | C=C(C)CCCC1(C)OC(=O)C23CCC4C(=CCC5C(C)(C)C(OC6OCC(OS(=O)(=O)O)C(O)C6OC6OC(C)C(OC7OC(CO)C(O)C(OC8OC(CO)C(O)C(OC)C8O)C7O)C(O)C6OC6OCC(O)C(O)C6O)CCC45C)C2(C)CC(=O)C13 (centres unmarked) [Cucumarioside A2-2, reference compound] |  |  |  |  |  |  |  |  |  |  |  |  |  |  |  | EC50 ([1]; MTT reagent): 42400 nM; EC50 [9]: 15100 nM; EC50 ([2]; MTT reagent): 37500 nM; EC50 ([4]; FDA): 18500 nM
5 |  | O=C1C2=C(S[C@@H]3O[C@H](CO)[C@@H](O)[C@H](O)[C@H]3O2)C(=O)c2c(O)cccc21 [Compound 19a, (2R,3S,4S,4aR,12aS)-3,4,10-Trihydroxy-2-hydroxymethyl-3,4,4a,12a-tetrahydro-2H-naphtho[2,3-b]pyrano[2,3-e][2,5]oxathiine-6,11-dione] | 3700 nM | 0 mm | 0 mm | 0 mm | 4100 nM | 0 mm | 600 nM |  | 600 to 900 nM | 0 mm | 1.5 | 5600 nM | 1.4 | 9.3 |  | 
6 |  | O=C1C2=C(S[C@@H]3O[C@H](CO)[C@H](O)[C@H](O)[C@H]3O2)C(=O)c2c(O)cccc21 [Compound 19b, (2R,3R,4S,4aR,12aS)-3,4,10-Trihydroxy-2-hydroxymethyl-3,4,4a,12a-tetrahydro-2H-naphtho[2,3-b]pyrano-[2,3-e][2,5]oxathiine-6,11-dione] | 2700 nM | 8 ± 2 mm | 0 mm | 0 mm | 2300 nM | 0 mm | 700 nM |  | 600 to 900 nM | 0 mm | 0.3 | 900 nM | 0.4 | 1.3 | ≤ 10 mm | 
